One assay concerns MMP1 expression by SFs. Briefly: 'MMP assay': MMP1 expression by 'complex trigger' activated synovial fibroblasts (MMP1 ELISA). In kind it is cell-based, human. The settings on record: Homo sapiens, Fibroblast, RASFs, 48 hrs. The protocol:
A 384-well format ELISA for measurement of MMP1 is developed. Various primary antibodies are tested, as well as various ELISA protocols. The following protocol is developed and validated to measure MMP1 levels in SF supernatant in 384 well plates: white Lumitrac 600 384 well plates (Greiner) are coated with 2 μg/mL anti-MMP1 antibody MAB1346 (Chemicon). The antibody is diluted in buffer 40 (1.21 g Tris base (Sigma), 0.58 g NaCl (Calbiochem) and 5 ml 10% NaN3 (Sigma) in 1 L milliQ water and adjusted to pH 8.5). After overnight incubation at 4° C., plates are washed with PBS (80 g NaCl, 2 g KCl (Sigma), 11.5 g Na2HPO4.7H2O and 2 g KH2PO4 in 10 L milliQ; pH 7.4) and blocked with 100 μL/well Casein buffer (2% Casein (VWR International) in PBS). Next day, casein buffer is removed from ELISA plates and replaced by 50 μL/well EC buffer (4 g casein, 2.13 g Na2HPO4 (Sigma), 2 g bovine albumin (Sigma), 0.69 g NaH2PO4.H2O (Sigma), 0.5 g CHAPS (Roche), 23.3 g NaCl, 4 mL 0.5 M EDTA pH 8 (Invitrogen), 5 mL 10% NaN3 in 1 L milliQ and adjusted to pH 7.0). 0.25 mM DTT (Sigma) is added to the thawed samples plates. After removal of the EC buffer, 20 μL of sample is transferred to the ELISA plates. After overnight incubation at 4° C. plates are washed twice with PBS and once with PBST (PBS with 0.05% Tween-20 (Sigma)) and incubated with 35 μL/well biotinylated anti-MMP1 antibody solution (R&D). This secondary antibody is diluted in buffer C (0.82 g NaH2PO4.H2O, 4.82 g Na2HPO4, 46.6 g NaCl, 20 g bovine albumin and 4 mL 0.5M EDTA pH 8 in 2 L milliQ and adjusted to pH 7.0) at a concentration of 5 μg/mL. After 2 h of incubation at RT, plates are washed as described above and incubated with 50 μL/well streptavidin-HRP conjugate (Biosource). Streptavidin-HRP conjugate is diluted in buffer C at a concentration of 0.25 μg/mL. After 45 min, plates are washed as described above and incubated for 5 min with 50 μL/well BM Chem ELISA Substrate (Roche). Readout is performed on the Luminoscan Ascent Luminometer (Labsystems) with an integration time of 200 msec or with an Envision reader (Perkin Elmer).
The increase of MMP1 expression by SFs upon treatment with cytokines relevant in the field of RA (TNF-α, IL1β and OSM) or a combination thereof is shown in FIG. 2 as white bars. For this experiment, SFs are seeded in 96 well plates, 3,000 cells/well. 24 h later, the medium is changed to M199 medium supplemented with 1% FBS. One day after the medium change, cytokines or combinations thereof are added to the cultures, each cytokine being added to a final concentration of 25 ng/mL. 72 h after cytokine addition, the supernatant is collected and processed in the MMP1 ELISA as described in the protocol given above. In parallel with this experiment, SFs are triggered, using the same protocol, with the supernatant of THP1 cells (2-fold diluted in M199+1% FBS) treated with the same cytokines or combinations of cytokines for 48 h in M199 medium+1% FBS. The induction of the MMP1 expression by SFs triggered with the supernatants of TNF-α-treated THP1 cells is stronger (>4.5 fold induction) as compared to the SFs triggered with recombinant TNF-α alone (3-fold induction) and almost equals the 5-fold induction obtained by a mixture of 3 purified cytokines (TNF-α, IL1βb, OSM). […] As the role of TNF-α in the RA pathogenesis is validated (TNF-α-blockers such as Infliximab and Etanercept show some efficacy in the treatment of RA patients) and the THP-1 cells are representative for monocytes/macrophages present in the joint of RA patients, the TNF-α-based trigger mixture prepared by contacting THP-1 cells with TNF-α will contain factors present in the joints of RA patients and subsequently is relevant to RA. This TNF-α-based complex trigger, further referred to as the ‘complex trigger’, will further be used as basis for the ‘MMP assay’.
Dexamethasone is shown to dose-dependently reduce amounts of MMP1 produced by complex trigger activated SFs. […]

For a further assay, the target named is T1, MAPKAPK5 (Homo sapiens, UniProt Q8IW41).
T1 construct: 1 mU MAPKAP-K5
T1 sequence (Q8IW41 1-473): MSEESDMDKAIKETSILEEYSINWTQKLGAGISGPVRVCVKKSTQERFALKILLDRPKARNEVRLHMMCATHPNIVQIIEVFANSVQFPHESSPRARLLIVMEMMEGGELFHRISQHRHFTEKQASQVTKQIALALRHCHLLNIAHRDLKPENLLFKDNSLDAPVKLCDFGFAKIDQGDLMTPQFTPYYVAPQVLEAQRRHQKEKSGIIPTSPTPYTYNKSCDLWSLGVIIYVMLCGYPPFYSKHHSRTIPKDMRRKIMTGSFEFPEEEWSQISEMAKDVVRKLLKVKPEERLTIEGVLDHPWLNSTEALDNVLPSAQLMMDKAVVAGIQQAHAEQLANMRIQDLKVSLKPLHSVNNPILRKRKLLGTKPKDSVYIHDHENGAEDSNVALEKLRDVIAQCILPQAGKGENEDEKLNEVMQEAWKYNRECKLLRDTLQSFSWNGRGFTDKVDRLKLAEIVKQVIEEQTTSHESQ
Briefly: MAPKAP-K5 assay (FlashPlate, 33P-ATP). Type of assay: biochemical. The settings on record: 0.6 μM ATP, 30 minutes at room temperature. The protocol:
3 μM MAPKAP-K5 peptide substrate

Molecules are shown by their SMILES. Some results are limits rather than exact numbers.

Consider `CCOc1cc(-c2cnc(Nc3ccc(N4CCOCC4)cc3)c3nccn23)ccn1` [Compound 107], for which the EC50 with MMP1 expression by SFs is greater than 1000 nM. At MAPKAPK5, this compound yielded an IC50 greater than 1000 nM.
As to `NC(=O)c1cccc(Nc2ncc(-c3cn[nH]c3)n3ccnc23)c1` [Compound 10], the EC50 in the assay on MMP1 expression by SFs is greater than 1000 nM. For the same compound, the IC50 at MAPKAPK5 was greater than 1000 nM.
As for `CS(=O)(=O)c1ccc(Nc2ncc(-c3ccc(C(N)=O)cc3)n3ccnc23)cc1` [Compound 97, 4-[8-(4-Methanesulfonyl-phenylamino)-imidazo[1,2-a]pyrazin-5-yl]-benzamide], the EC50 in the assay with MMP1 expression by SFs was greater than 1000 nM. The half-maximal inhibitory concentration (IC50) on MAPKAPK5 is greater than 1000 nM.
Regarding `NC(=O)c1cc(-c2cnc(Nc3ccc(C4CCN(CC(F)(F)F)CC4)cc3)c3nccn23)cs1` [Compound 194], in the assay with MMP1 expression by SFs, the EC50 was in the range of 501 to 1000 nM. On MAPKAPK5, this compound displayed an IC50 greater than 1000 nM.
In the case of `Cc1cnc2c(Nc3ccc(N4CCOCC4)cc3)ncc(-c3ccc(C(N)=O)cc3)n12` [Compound 130, 4-[3-Methyl-8-(4-morpholin-4-ylphenylamino)imidazo[1,2-a]pyrazin-5-yl]benzamide], the EC50 in the assay with MMP1 expression by SFs is greater than 1000 nM. The same compound came in with an IC50 at MAPKAPK5 greater than 1000 nM.
For the compound `NC(=O)c1ccc(-c2cnc(Nc3ccc(-n4cc(-c5ccccn5)nn4)cc3)c3nccn23)cc1` [Compound 154, 4-{8-[4-(4-Pyridin-2-yl-[1,2,3]triazol-1-yl)-phenylamino]-imidazo[1,2-a]pyrazin-5-yl}-benzamide], the EC50 in the assay on MMP1 expression by SFs is 1 to 100 nM. The IC50 against MAPKAPK5 is greater than 1000 nM.
The corresponding values for `O=C1NCc2cc(-c3cnc(Nc4ccc(N5CCOCC5)nc4)c4nccn34)ccc21` [Compound 214] are greater than 1000 nM and 1 to 100 nM.
`CCN(CC)CCNC(=O)c1ccc(Nc2ncc(-c3ccc(-c4nn[nH]n4)cc3)n3ccnc23)cc1` [Compound 60]: the EC50 with MMP1 expression by SFs was greater than 1000 nM. The same compound came in with a 50% inhibitory concentration (IC50) on MAPKAPK5 greater than 1000 nM.
Take `O=C1NCc2cc(-c3cnc(Nc4ccc(N5CCOCC5)cn4)c4nccn34)ccc21` [Compound 211]: in the assay with MMP1 expression by SFs, the EC50 is greater than 1000 nM. The compound also yielded an IC50 against MAPKAPK5 of 101 to 500 nM.
The corresponding values for `CC(C)N1CCC(c2ccc(Nc3ncc(-c4ccc5c(c4)CNC5=O)n4ccnc34)cc2)CC1` [Compound 206, 5-{8-[4-(1-Isopropylpiperidin-4-yl)phenylamino]-imidazo[1,2-a]pyrazin-5-yl}-2,3-dihydroisoindol-1-one] are greater than 1000 nM and 1 to 100 nM.
In the same order, the values of `O=C(O)c1cnc(Nc2ccc(N3CCOCC3)cc2)c2nccn12` [Compound 63] are greater than 1000 nM and greater than 1000 nM.
The corresponding values for `c1cn2c(-c3nn[nH]n3)cnc(Nc3ccc(N4CCOCC4)cc3)c2n1` [Compound 62] are greater than 1000 nM and greater than 1000 nM.
As for `CCN(CC)CCNC(=O)c1ccc(Nc2ncc(-c3ccc(CC(=O)O)cc3)n3ccnc23)cc1` [Compound 76], the EC50 in the assay on MMP1 expression by SFs was greater than 1000 nM. The IC50 against MAPKAPK5 was greater than 1000 nM.
As to `NC(=O)c1ccc(-c2cnc(Nc3ccc(-n4ccc(C(F)(F)F)n4)cc3)c3nccn23)cc1` [Compound 133], the EC50 with MMP1 expression by SFs is 101 to 500 nM. Besides, the IC50 against MAPKAPK5 was greater than 1000 nM.
In the same order, the values of `CN1CCN(c2ccc(Nc3ncc(-c4cn[nH]c4C(F)(F)F)n4ccnc34)cc2)CC1` [Compound 157, [4-(4-Methyl-piperazin-1-yl)-phenyl]-[5-(3-trifluoromethyl-1H-pyrazol-4-yl)-imidazo[1,2-a]pyrazin-8-yl]-amine] are greater than 1000 nM and greater than 1000 nM.
As for `CCN(CC)CCNC(=O)c1ccc(Nc2ncc(-c3ccc(O)cc3C(F)(F)F)n3ccnc23)cc1` [Compound 75], the EC50 with MMP1 expression by SFs was greater than 1000 nM. On MAPKAPK5, this compound showed an IC50 greater than 1000 nM.
As for `NC(=O)c1ccc(Nc2ncc(-c3cn[nH]c3)n3cc(Br)nc23)cc1` [Compound 37], the EC50 with MMP1 expression by SFs was greater than 1000 nM. Moreover, the IC50 against MAPKAPK5 is greater than 1000 nM.
For the compound `CCN(CC)CCNC(=O)c1ccc(Nc2ncc(-c3cn[nH]c3)n3cc(C)nc23)cc1` [Compound 59], in the assay on MMP1 expression by SFs, the EC50 was greater than 1000 nM. Also, at MAPKAPK5, the IC50 was greater than 1000 nM.
As for `Cc1cnc2c(Nc3ccc(N4CCOCC4)cc3)ncc(-c3cc[nH]c(=O)c3)n12` [Compound 135], the EC50 in the assay on MMP1 expression by SFs was greater than 1000 nM. This compound also came in with an IC50 against MAPKAPK5 greater than 1000 nM.
On to `CCN(CC)CCNC(=O)c1ccc(Nc2ncc(-c3c(C)n[nH]c3C)n3ccnc23)cc1` [Compound 81], for which the EC50 in the assay on MMP1 expression by SFs was greater than 1000 nM. Besides, the IC50 against MAPKAPK5 is greater than 1000 nM.
As for `CN1CCN(S(=O)(=O)c2ccc(Nc3ncc(-c4cn[nH]c4)n4ccnc34)cc2)CC1` [Compound 70], the EC50 in the assay with MMP1 expression by SFs is greater than 1000 nM. On MAPKAPK5, this compound showed an IC50 greater than 1000 nM.
For `COc1cccc(Nc2ncc(-c3cn[nH]c3)n3ccnc23)c1` [Compound 16], in the assay with MMP1 expression by SFs, the EC50 is greater than 1000 nM. On MAPKAPK5, this compound had an IC50 greater than 1000 nM.
As for `NC(=O)c1cnc(Nc2ccc(N3CCOCC3)cc2)c2nccn12` [Compound 66], the EC50 in the assay with MMP1 expression by SFs was greater than 1000 nM. The IC50 at MAPKAPK5 was greater than 1000 nM.
As to `CC(C)N1CCN(c2ccc(Nc3ncc(-c4coc(C(N)=O)c4)n4ccnc34)cn2)CC1` [Compound 209, 4-{8-[6-(4-Isopropyl-piperazin-1-yl)-pyridin-3-ylamino]-imidazo[1,2-a]pyrazin-5-yl}-furan-2-carboxylic acid amide], the EC50 in the assay with MMP1 expression by SFs is greater than 1000 nM. At MAPKAPK5, the IC50 was 101 to 500 nM.
In the same order, the values of `CN1CCN(c2ccc(Nc3ncc(-c4ccc(C(=O)O)cc4)n4ccnc34)cc2)CC1` [Compound 43] are greater than 1000 nM and greater than 1000 nM.
Turning to `NC(=O)Cn1cc(-c2cnc(Nc3ccc(N4CCOCC4)cc3)c3nccn23)cn1` [Compound 24], the concentration giving a half-maximal response (EC50) with MMP1 expression by SFs was greater than 1000 nM. Also, the IC50 at MAPKAPK5 is greater than 1000 nM.
As for `O=C(Cc1ccccc1)Nc1ccc(Nc2ncc(-c3cn[nH]c3)n3ccnc23)cn1` [Compound 200, 2-Phenyl-N-{5-[5-(1H-pyrazol-4-yl)imidazo[1,2-a]pyrazin-8-ylamino]pyridin-2-yl}acetamide], the EC50 in the assay with MMP1 expression by SFs lay within 101 to 500 nM. The IC50 on MAPKAPK5 is greater than 1000 nM.
In the same order, the values of `CN1CCN(c2ccc(Nc3ncc(-c4ccc(C(=O)N5CCCC5)cc4)n4ccnc34)cc2)CC1` [Compound 115] are greater than 1000 nM and greater than 1000 nM.
Regarding `NC(=O)c1ccc(Nc2ncc(-c3cn[nH]c3)n3ccnc23)nc1` [Compound 38], in the assay on MMP1 expression by SFs, the EC50 was greater than 1000 nM. The compound also had an IC50 against MAPKAPK5 greater than 1000 nM.
In the case of `CCN(CC)CCNC(=O)c1ccc(Nc2ncc(-c3nn[nH]n3)n3ccnc23)cc1` [Compound 68], in the assay with MMP1 expression by SFs, the EC50 is greater than 1000 nM. At MAPKAPK5, this compound registered an IC50 greater than 1000 nM.

The EC50 is the midpoint of the concentration-response curve. What is called IC50 is the midpoint of a concentration-inhibition curve. A high value points to weaker potency.

The record behind these values is patent US8178530B2, “Imidazolopyrazine compounds useful for the treatment of degenerative and inflammatory diseases” (Janssen Pharmaceutica NV, priority 2006, dated 2012).
